We go through 7 compounds from US4841076A, “Benzopyran derivatives” (Daiichi Seiyaku Co., Ltd., priority 1986, dated 1989).

Series [1] deals with male rats. Briefly: Diuretic Activity and Natriuretic Activity. Type of series: in vivo. The following applies: 300 mg/Kg, orally, urine collected for 5 hours, control value subtracted. The protocol: Male rats weighing 150 to 250 g were fasted overnight and, the next morning, orally administered with either (1) 25 ml/Kg of physiological saline (control group) or (2) a test compound which was suspended in 0.5 wt % carboxymethylcellulose. Urine after dosing was collected for 5 hours, and urinary volume and sodium concentration were measured. Each parameter was calculated by subtracting the value of the control group from that of the test group.

In series [2] the test system is male rats. Briefly: Uricosuric Activity (fractional excretion of uric acid). Type of series: in vivo. The following applies: orally, 30 min urine from 60 min after dosing. The protocol:
Male rats weighing 150 to 250 g were fasted overnight and, the next morning, orally administered with either (1) 25 ml/Kg of physiological saline (control group) or (2) a test compound which was suspended in 0.5 wt % carboxymethylcellulose. After 60 minutes from the administration of the test compound, urine over a period of 30 minutes was collected. Thereafter, blood was taken from the arotid artery under anesthesia, and uric acid concentrations in the urine and the serum were determined by the enzyme method. On the other hand, […] concentrations in the urine and the serum were determined by a Jaffe's method to obtain the fractional excretion of uric acid. Percent of uric acid excretion was calculated by dividing the value of fractional excretion in the test group by that in the control group.

Series [3] deals with hypertensive rats. The experiment in a line: Antihypertensive Activity (DOCA/saline hypertensive rats, tail cuff). Type of series: in vivo. The following applies: DOCA hypertensive rats, orally once a day, systolic pressure vs control. The protocol:
Four-week-old male rats weighing 120 to 150 g were subcutaneously injected with DOCA (desoxycorticosterone acetate) and fed on a 1% saline solution to cause hypertension in accordance with the method of Seyle, et al. as described in American Heart Journal, Vol. 37, 1009 (1949). The test compound was orally administered to the hypertensive rats once a day for 4 weeks. The blood pressure of the animal was measured by a tail cuff method every one week from the start of the administration.
In Table 3, antihypertensive activity (ΔmmHg) was obtained by subtracting the systolic pressure of the test group from that of the control group.

A short description of series [4]: Acute toxicity (LD50). The settings on record: rat, in vivo, po; P.O. in Rats. From the text: The compound of the present invention has a low toxicity, and the acute toxicity (LD50) of typical compounds of formula (I) is shown in the following Table 4.
The conditions of series [5]: in words, literature; cited from earlier work.

`O=C(O)COc1cc(Cl)c2c(=O)c(-c3ccccc3Cl)coc2c1` [(c), {[5-Chloro-3-(2-chlorophenyl)-4-oxo-4H-1-benzopyran-7-yl]oxy}acetic acid]: in series [1], the “Increase in Urinary Na^+” value is listed as 1015 ΔμEq and the “Increase in Urinary Output” value is 41.0 Δml/Kg. Also, the “% of Uric Acid Excretion” value in series [2] (100 mg/Kg) is 36%. For the same compound, in series [3] (100 mg/Kg), the “Antihypertensive Activity After 1 Week” value is on record as 13.6 ΔmmHg, the “Antihypertensive Activity After 2 Weeks” value is given as 20.7 ΔmmHg and the “Antihypertensive Activity After 3 Weeks” value is 29.3 ΔmmHg. In addition, the LD50 (as a rule, the dose expected to kill half of the subjects tested) in series [4] was determined as 1410 mg/kg.
With `CC1(c2ccccc2)Cc2cc(OCC(=O)O)c(Cl)c(Cl)c2C1=O` (centres unmarked) [indacrinone], the “diuretic, saluretic and uricosuric activities” value in series [5] was “having diuretic and uricosuric activities”.
In the case of `O=C(O)COc1cc(Cl)c2c(=O)c(Cc3ccccc3)coc2c1` [(e), [(3-Benzyl-5-chloro-4-oxo-4H-1-benzopyran-7-yl)oxy]acetic acid], in series [1], the “Increase in Urinary Na^+” value is on record as 967 ΔμEq and the “Increase in Urinary Output” value was 37.9 Δml/Kg. For the same compound, the “% of Uric Acid Excretion” value in series [2] (100 mg/Kg) was 39%. Moreover, in series [3] (100 mg/Kg), the “Antihypertensive Activity After 1 Week” value is 6.2 ΔmmHg, the “Antihypertensive Activity After 2 Weeks” value is recorded as 28.7 ΔmmHg and the “Antihypertensive Activity After 3 Weeks” value is on record as 39.4 ΔmmHg.
As for `O=C(O)COc1ccc(C(=O)c2cccs2)c(Cl)c1Cl` [Tienilic acid, [2,3-dichloro-4-(2-thenoyl)phenoxy]acetic acid, reference compound], in series [1], the “Increase in Urinary Na^+” value was 353.4 ΔμEq and the “Increase in Urinary Output” value was 10.2 Δml/Kg. Also, the “% of Uric Acid Excretion” value in series [2] (200 mg/Kg) is recorded as 38%. Moreover, in series [3] (300 mg/Kg), the “Antihypertensive Activity After 1 Week” value was 23.6 ΔmmHg, the “Antihypertensive Activity After 2 Weeks” value is reported as 35.0 ΔmmHg and the “Antihypertensive Activity After 3 Weeks” value is 44.3 ΔmmHg. Also, the “diuretic, saluretic and uricosuric activities” value in series [5] is “having diuretic and uricosuric activities”.
Regarding `Cc1cc(OCC(=O)O)cc2occ(-c3ccccc3)c(=O)c12` [(b), [(5-Methyl-4-oxo-3-phenyl-4H-1-benzopyran-7-yl)oxy]acetic acid], in series [1], the “Increase in Urinary Na^+” value is listed as 987 ΔμEq and the “Increase in Urinary Output” value is 23.6 Δml/Kg. The “% of Uric Acid Excretion” value in series [2] (100 mg/Kg) turned out to be 66%. For the same compound, in series [3] (100 mg/Kg), the “Antihypertensive Activity After 1 Week” value was 10.0 ΔmmHg, the “Antihypertensive Activity After 2 Weeks” value is given as 17.9 ΔmmHg and the “Antihypertensive Activity After 3 Weeks” value is 15.0 ΔmmHg. Also, the LD50 in series [4] turned out to be 936 mg/kg.
For `O=C(O)COc1cc(Cl)c2c(=O)c(-c3ccccc3)coc2c1` [(a), [(5-Chloro-4-oxo-3-phenyl-4H-1-benzopyran-7-yl)oxy]acetic acid], in series [1], the “Increase in Urinary Na^+” value was 1220 ΔμEq and the “Increase in Urinary Output” value is 51.8 Δml/Kg. For the same compound, the “% of Uric Acid Excretion” value in series [2] (100 mg/Kg) was found to be 136%. In addition, in series [3] (100 mg/Kg), the “Antihypertensive Activity After 1 Week” value is given as 13.7 ΔmmHg, the “Antihypertensive Activity After 2 Weeks” value is recorded as 37.0 ΔmmHg and the “Antihypertensive Activity After 3 Weeks” value was 49.0 ΔmmHg. This compound also gave an LD50 in series [4] of 1020 mg/kg.
Take `Cc1ccccc1-c1coc2cc(OCC(=O)O)cc(Cl)c2c1=O` [(d), {[5-Chloro-3-(2-methylphenyl)-4-oxo-4H-1-benzopyran-7-yl]oxy}acetic acid]: in series [1], the “Increase in Urinary Na^+” value was 1196 ΔμEq and the “Increase in Urinary Output” value is 49.6 Δml/Kg. For the same compound, in series [2] (100 mg/Kg), the “% of Uric Acid Excretion” value was determined as 56%. Also, in series [3] (100 mg/Kg), the “Antihypertensive Activity After 1 Week” value is given as 12.1 ΔmmHg, the “Antihypertensive Activity After 2 Weeks” value was 14.3 ΔmmHg and the “Antihypertensive Activity After 3 Weeks” value was 15.7 ΔmmHg.
